Data on one molecule can be found in US20250295612A1, “NOVEL AMYLOID-BETA AGGREGATE DEGRADER AND BRAIN-TARGETING DRUG DELIVERY SYSTEM USING SAME” (UNIVERSITY-INDUSTRY COOPERATION GROUP OF KYUNG HEE …, priority 2022, published 2025).

In assay [1] the target is T1, amyloid-beta plaques (Homo sapiens, UniProt P05067).
T1 construct: amyloid-beta (Aβ) 1-42 (Anaspec, AS-20276, MW=4514.1, 1 mg); purchased Anaspec AS-20276
As to the kind of experiment: ThT emission with supernatant of BCAP (released ANA). The format is biochemical. Particulars: PBS pH 7.4, 25° C., ThT 10 μM.

The target of assay [2] is T1, amyloid-beta plaques. Description: TEM analysis of amyloid-beta plaque morphology. Particulars: ANA (100 µM), plaques 20 μM. On the procedure:
(§1) To prepare amyloid-beta plaques, amyloid-beta (Aβ) 1-42 (Anaspec, AS-20276, MW=4514.1, 1 mg) was dissolved in a 1× PBS buffer (pH 7.4, 1 mL) to a final concentration of 222 μM. The solution was incubated (200 rpm) at 37° C. for 3 days, and the formed amyloid-beta plaques (Aβ plaques) were used in the following in vitro experiment without additional purification.
For TEM analysis, amyloid-beta plaques (20 μM) or amyloid-beta plaques (20 μM) and a compound (ANA, 100 μM) were treated on copper grids at room temperature. Each grid treated with samples (Aβ plaques or Aβ plaques+ANA) was washed three times with DI H2O and then stained with uranyl acetate (1% w/v DI H2O, 5 μL) for 1 minute. The uranyl acetate was removed, the grids were dried at room temperature for 20 minutes, and then the morphology of amyloid-beta plaques was analyzed by transmission electron microscopic images (TEM, Tecnai, G2 F30ST, FEI Company, OR, USA).

The target of assay [3] is T1, amyloid-beta plaques. Description: Confocal microscopy of amyloid-beta plaques with thioflavin S (ThS). Particulars: incubation with ANA for 24 hours. As for the experimental part: as §1
In addition, to evaluate the presence of amyloid-beta plaques (AB plaques) and a change in the disaggregation morphology of amyloid-beta plaques according to incubation with ANA for 24 hours, thioflavin S (ThS), a probe of amyloid-beta plaques, was additionally treated, and the change thereof was confirmed by fluorescence analysis using a confocal microscope. The samples (Aβ plaques, Aβ plaques +ANA) were added to 1 mL of a ThS (0.5%) solution, and each mixture was pipetted onto a slide glass and dried overnight at room temperature. Then, fluorescence images were obtained using a laser scanning confocal microscope (CLSM, LSM800, Zeiss, Oberkochen, Germany). Confocal images were obtained under excitation at 520 nm (laser power: 3.00%) using a detector (GaAsP, detector gain: 680 V, detector wavelength: 548 to 617 nm).

Assay [4] deals with T2, amyloid-beta plaques (amyloid-beta (Aβ) 1-42) (Homo sapiens, UniProt P05067).
T2 construct: amyloid-beta (Aβ) 1-42 (Anaspec, AS-20276, MW=4514.1, 1 mg); purchased Anaspec AS-20276
T2 sequence (P05067 672-713 limits assumed): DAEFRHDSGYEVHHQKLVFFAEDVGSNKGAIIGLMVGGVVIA
Description: Thioflavin T (ThT) fluorescence analysis of amyloid-beta plaque disaggregation. The format is biochemical. On the procedure:
To prepare amyloid-beta plaques, amyloid-beta (Aβ) 1-42 (Anaspec, AS-20276, MW=4514.1, 1 mg) was dissolved in a 1× PBS buffer (pH 7.4, 1 mL) to a final concentration of 222 μM. The solution was incubated (200 rpm) at 37° C. for 3 days, and the formed amyloid-beta plaques (Aβ plaques) were used in the following in vitro experiment without additional purification. From the formed library, hit compounds were identified through fluorescence analysis using thioflavin T (ThT), a probe of amyloid-beta plaques. Specifically, each amyloid-beta plaque disaggregation candidate (100 μM) was mixed with amyloid-beta plaques (10 μM) and ThT (10 μM), and incubated at 37° C. for 24 hours, and then a change in fluorescence intensity of ThT at 482 nm was confirmed (excitation wavelength: 413 nm). The absorption and emission spectra of ThT were obtained using UV/vis absorption spectroscopy (Agilent, California, USA) and a spectrofluorophotometer (Shimadzu Corp., Kyoto, Japan). For Compound P (ANA), a hit compound confirmed in Example 1, the amyloid-beta plaque disaggregation efficacy under various concentration conditions and pH conditions was confirmed through ThT assay in the same manner as in Example 1, and an emission intensity plot of ThT (10 μM) at 482 nm was shown in FIG. 2 (excitation wavelength: 413 nm).

T1 sequence (P05067 672-713 limits assumed): as above

Take `Nc1ccc2cc(S(=O)(=O)O)ccc2c1` [ANA, 6-amino-2-naphthalenesulfonic acid]: in assay [1], the “amyloid-beta plaque disaggregation efficacy of ANA released from BCAP” value was “still has the amyloid-beta plaque disaggregation efficacy”. The “morphology of amyloid-beta plaques after treatment (TEM)” value in assay [2] was “disaggregated and released into monomers”. Besides, the “fluorescence intensity of ThS after treatment” value in assay [3] is recorded as “significantly reduced”. Besides, the “amyloid-beta plaque disaggregation efficacy versus concentration” value in assay [4] (ANA 10 μM to 100 μM, plaques 10 μM) is recorded as “concentration-dependent manner”. Further, the “amyloid-beta plaque disaggregation efficacy at low concentration” value in assay [4] (ANA 10 μM, plaques 10 μM) was “significantly high amyloid-beta plaque disaggregation efficacy”. Moreover, the “fluorescence intensity change of ThT compared to a control group” value in assay [4] (candidate 100 μM, amyloid-beta plaques 10 μM, ThT 10 μM, 37° C., 24 hours, 482 nm) was found to be 23%. In addition, the “amyloid-beta plaque disaggregation efficacy among A-T candidates” value in assay [4] (candidate 100 μM, library screening) is “highest amyloid-beta plaque disaggregation efficacy”. Besides, the “amyloid-beta plaque disaggregation efficacy under various pH conditions” value in assay [4] (pH 3, 5, 7, 7.4, and 9) was “showed amyloid-beta plaque disaggregation efficacy at all pH conditions”. Also, the “amyloid-beta plaque disaggregation efficacy at pH of the brain” value in assay [4] (pH 7.4) is listed as “highest amyloid-beta plaque disaggregation efficacy”.
